In one test the target is ROCK1 (Homo sapiens, UniProt Q13464). The test is described as follows: ROCK1 inhibition assay (ROCK1 binding activity, as determined by the assay described for ROCK2). In kind it is biochemical. The settings on record: read-out: ROCK 1 (IC50 category). The gist of the method: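 Run under the conditions used for ROCK2: 1 h compound–kinase preincubation, then 1 h reaction with 100 μM long S6 peptide and 20 μM ATP in 50 mM HEPES pH 7.5, 1% DMSO. ADP quantified by ADP-Glo luminescence; IC50 from four-parameter logistic fit, reported in potency categories.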

Another test addresses T1, ROCK2 (Homo sapiens, UniProt O75116).
T1 construct: N-terminal 6His-tagged ROCK2 catalytic domain 11-552; 6His (N); purchased Dundee University, UK; host or cells: baculovirus expression system
The test is described as follows: ROCK2 inhibition assay (ADP-Glo kinase assay, called ROCK2 binding activity). Type of test: biochemical. The note with it: 20 μM ATP, 1 hour pre-incubation, read-out: ROCK 2 (IC50 category). The gist of the method: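 N-terminal 6His ROCK2 catalytic domain (11-552, baculovirus-expressed; 1.25 nM) was pre-incubated with compound for 1 h (1% DMSO, HEPES pH 7.5). Reaction then ran 1 h with 100 μM long S6 peptide and 20 μM ATP. ADP was quantified by ADP-Glo luminescence, and IC50 was derived from a four-parameter logistic fit and reported in potency bins.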
A general note: In ADP-Glo the light output rises with the ADP produced.

Our source for the IC50 values is patent US20250122173A1, “MODULATORS OF RHO-ASSOCIATED PROTEIN KINASE” (Redx Pharma Limited, priority 2022, published 2025).

In general, pIC50 refers to −log10 of the IC50, conventionally taken in molar units.

Structures are written as SMILES. pIC50: −log10 of the molar value.

T1 sequence (O75116 11-552): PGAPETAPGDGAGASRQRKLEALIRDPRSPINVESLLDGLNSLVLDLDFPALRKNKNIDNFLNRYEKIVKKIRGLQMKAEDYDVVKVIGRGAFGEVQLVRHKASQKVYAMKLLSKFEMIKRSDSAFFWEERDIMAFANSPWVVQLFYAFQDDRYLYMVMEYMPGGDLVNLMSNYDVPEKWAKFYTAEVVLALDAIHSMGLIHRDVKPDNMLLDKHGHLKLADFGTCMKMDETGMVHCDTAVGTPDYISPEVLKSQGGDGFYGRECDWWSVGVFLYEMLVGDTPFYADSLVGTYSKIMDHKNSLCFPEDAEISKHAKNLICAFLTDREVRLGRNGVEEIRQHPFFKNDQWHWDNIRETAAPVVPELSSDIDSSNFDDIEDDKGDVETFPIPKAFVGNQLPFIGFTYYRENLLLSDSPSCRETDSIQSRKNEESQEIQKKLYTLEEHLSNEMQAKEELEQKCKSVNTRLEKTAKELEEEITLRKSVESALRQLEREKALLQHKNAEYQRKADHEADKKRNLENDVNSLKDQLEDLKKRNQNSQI
Sequence of ROCK1 (Q13464 whole entry): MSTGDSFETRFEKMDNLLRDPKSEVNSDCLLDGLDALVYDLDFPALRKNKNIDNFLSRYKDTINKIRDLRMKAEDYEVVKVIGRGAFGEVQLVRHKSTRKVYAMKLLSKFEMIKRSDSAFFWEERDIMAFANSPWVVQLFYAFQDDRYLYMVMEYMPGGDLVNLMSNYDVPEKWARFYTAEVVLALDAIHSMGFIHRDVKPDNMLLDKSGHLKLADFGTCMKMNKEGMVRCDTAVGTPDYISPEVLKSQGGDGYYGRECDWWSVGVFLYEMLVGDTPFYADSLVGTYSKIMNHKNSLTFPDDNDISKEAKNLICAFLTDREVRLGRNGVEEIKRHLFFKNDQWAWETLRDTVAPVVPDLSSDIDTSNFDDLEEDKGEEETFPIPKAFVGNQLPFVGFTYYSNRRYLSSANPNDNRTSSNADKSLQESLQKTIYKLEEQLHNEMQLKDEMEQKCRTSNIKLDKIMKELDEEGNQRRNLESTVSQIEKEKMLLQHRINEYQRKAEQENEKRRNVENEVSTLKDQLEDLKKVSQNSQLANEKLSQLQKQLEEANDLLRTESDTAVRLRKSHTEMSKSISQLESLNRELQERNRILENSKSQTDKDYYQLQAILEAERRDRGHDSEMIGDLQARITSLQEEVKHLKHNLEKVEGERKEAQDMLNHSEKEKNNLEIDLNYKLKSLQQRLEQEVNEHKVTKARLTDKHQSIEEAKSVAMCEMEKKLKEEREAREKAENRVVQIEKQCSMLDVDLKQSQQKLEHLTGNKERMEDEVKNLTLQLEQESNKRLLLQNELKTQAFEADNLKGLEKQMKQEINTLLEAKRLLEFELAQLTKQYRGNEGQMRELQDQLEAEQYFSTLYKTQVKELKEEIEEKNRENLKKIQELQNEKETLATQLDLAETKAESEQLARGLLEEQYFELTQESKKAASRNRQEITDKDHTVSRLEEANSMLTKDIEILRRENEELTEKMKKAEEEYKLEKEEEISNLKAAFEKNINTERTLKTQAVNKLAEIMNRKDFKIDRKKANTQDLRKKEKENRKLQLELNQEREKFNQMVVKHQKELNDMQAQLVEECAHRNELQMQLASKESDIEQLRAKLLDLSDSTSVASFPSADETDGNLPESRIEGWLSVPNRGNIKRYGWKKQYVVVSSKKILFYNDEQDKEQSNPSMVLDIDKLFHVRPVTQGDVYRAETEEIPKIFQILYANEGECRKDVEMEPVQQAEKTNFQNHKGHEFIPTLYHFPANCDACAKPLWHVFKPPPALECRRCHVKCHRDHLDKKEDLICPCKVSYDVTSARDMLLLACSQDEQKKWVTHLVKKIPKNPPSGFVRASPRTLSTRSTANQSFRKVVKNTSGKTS

With `CCn1nc(-c2ccc(-c3ccn(CC(F)(F)F)c3)cc2)nc1Nc1cc2c(cc1C)C(=O)NC2C` (centres unmarked) [Example 124], the pIC50 is 5.00 to 5.52 on ROCK1 and > 6.52 on ROCK2.

On to `CCn1nc(-c2ccc(-c3ccc(C)nc3)c(C(C)=O)c2)nc1Nc1cc2c(cc1C)C(=O)NC2C` (centres unmarked) [Example 125], for which the values for the pIC50 on ROCK1 and on ROCK2 were < 5.00 and > 6.52, respectively.

As for `CCn1nc(-c2ccc(-n3cnc(C4CC4)c3)cc2C)nc1Nc1cc2c(cc1C)C(=O)NC2C` (centres unmarked) [Example 126], the pIC50 is 5.00 to 5.52 at ROCK1 and > 6.52 on ROCK2.

As to `CCn1nc(-c2ccc(C3CCN(C(C)C(F)(F)F)CC3)cc2)nc1Nc1cc2c(cc1C)C(=O)NC2C` (centres unmarked) [Example 127], the negative logarithm of the IC50 (pIC50) at ROCK1 and on ROCK2 was 5.52 to 6.52 each time.

As to `CCn1nc(-c2ccc(C3CCN(C)CC3)cc2C)nc1Nc1cc2c(cc1C)C(=O)NC2C` (centres unmarked) [Example 128], the pIC50 at ROCK1 and on ROCK2 was < 5.00 each time.

As to `CCn1nc(-c2ccc(-c3ccn(C)c3)c(C)c2)nc1Nc1cc2c(cc1C)C(=O)NC2C` (centres unmarked) [Example 129], the pIC50 at ROCK1 was 5.00 to 5.52; on ROCK2, > 6.52.

In the case of `CCn1nc(-c2ccc(-c3ccc(C4CC4)nc3)cc2)nc1Nc1cc2c(cc1F)C(=O)NC2C` (centres unmarked) [Example 130], the pIC50 is 5.00 to 5.52 at ROCK1 and > 6.52 at ROCK2.

Regarding `CCn1nc(-c2ccc(C3CCN(CC(F)(F)F)CC3)cc2C)nc1Nc1cc2c(cc1C)C(=O)NC2C` (centres unmarked) [Example 131], the values for the negative logarithm of the IC50 (pIC50) at ROCK1 and at ROCK2 were < 5.00 and > 6.52, respectively.

Take `CCn1nc(-c2ccc(-c3ccc(C)nc3)cc2F)nc1Nc1cc2c(cc1C)C(=O)NC2C` (centres unmarked) [Example 132]: the figures for the negative-log IC50 (pIC50) on ROCK1 and on ROCK2 were 5.00 to 5.52 and > 6.52, respectively.

As to `CCn1nc(-c2cc(C)c(-c3ccc(C)cn3)cc2C)nc1Nc1ccc2c(c1)C(C)NC2=O` (centres unmarked) [Example 133], the values for the pIC50 on ROCK1 and at ROCK2 were < 5.00 and > 6.52, respectively.

Turning to `CCn1nc(-c2cc(C)c(-c3ccc(C4CC4)cn3)cc2F)nc1Nc1ccc2c(c1)C(C)NC2=O` (centres unmarked) [Example 134], the negative-log IC50 (pIC50) on ROCK1 is < 5.00; at ROCK2, > 6.52.

`CCn1nc(-c2cc(C)c(-c3ccc(C4CC4)cn3)cc2C)nc1Nc1ccc2c(c1)C(C)NC2=O` (centres unmarked) [Example 135]: the results for the negative-log IC50 (pIC50) at ROCK1 and at ROCK2 were < 5.00 and > 6.52, respectively.

As for `CCn1nc(-c2ccc(-c3ccn(C)c3)cc2)nc1Nc1cc2c(cc1C)C(=O)NC2C` (centres unmarked) [Example 136], the negative logarithm of the IC50 (pIC50) was 5.00 to 5.52 at ROCK1 and > 6.52 on ROCK2.

Consider `CCn1nc(-c2ccc(-c3ccc(C4CC4)cn3)nc2)nc1Nc1cc2c(cc1C)C(=O)NC2C` (centres unmarked) [Example 137], for which the values for the pIC50 at ROCK1 and on ROCK2 were 5.52 to 6.52 and > 6.52, respectively.

`CCn1nc(-c2ccc(C3CCN(CC(F)(F)F)C3)c(C)c2)nc1Nc1cc2c(cc1C)C(=O)NC2C` (centres unmarked) [Example 138]: the pIC50 on ROCK1 is < 5.00; at ROCK2, > 6.52.

In the case of `CCn1nc(-c2ccc(-c3ccn(CC(F)(F)F)c3)c(C)c2)nc1Nc1cc2c(cc1C)C(=O)NC2C` (centres unmarked) [Example 139], the negative-log IC50 (pIC50) at ROCK1 was 5.52 to 6.52; on ROCK2, > 6.52.

On to `CCn1nc(-c2ccc(C3CCCN(C)C3)c(C)c2)nc1Nc1cc2c(cc1C)C(=O)NC2C` (centres unmarked) [Example 140], for which the pIC50 on ROCK1 and on ROCK2 was < 5.00 in each case.

Consider `CCn1nc(-c2ccc(C3CCNCC3)c(C)c2)nc1Nc1cc2c(cc1C)C(=O)NC2C` (centres unmarked) [Example 141], for which the negative logarithm of the IC50 (pIC50) on ROCK1 was < 5.00; at ROCK2, 5.00 to 5.52.

As to `CCn1nc(-c2ccc(C3CCN(C)CC3)cc2)nc1Nc1cc2c(cc1C)C(=O)NC2C` (centres unmarked) [Example 142], the pIC50 at ROCK1 and at ROCK2 was < 5.00 in each case.

Consider `CCn1nc(-c2ccc(C3CCCN(CC(F)(F)F)C3)cc2)nc1Nc1cc2c(cc1F)C(=O)NC2C` (centres unmarked) [Example 143], for which the pIC50 was < 5.00 at ROCK1 and 5.52 to 6.52 on ROCK2.

Take `CCn1nc(-c2ccc(C3CCN(C)CC3)c(C)c2)nc1Nc1cc2c(cc1C)C(=O)NC2C` (centres unmarked) [Example 144]: the pIC50 at ROCK1 and on ROCK2 was < 5.00 throughout.

Turning to `CCn1nc(-c2ccc(C3CCC(C)NC3)c(C)c2)nc1Nc1cc2c(cc1C)C(=O)NC2C` (centres unmarked) [Example 145, 5-[[2-ethyl-5-[3-methyl-4-(6-methyl-3-piperidyl)phenyl]-1,2,4-triazol-3-yl]amino]-3,6-dimethyl-isoindolin-1-one], the values for the negative-log IC50 (pIC50) on ROCK1 and at ROCK2 were < 5.00 and 5.00 to 5.52, respectively.

`CCn1nc(-c2ccc(C3CCN(CC(F)(F)F)CC3)cc2)nc1Nc1cc2c(cc1F)C(=O)NC2C` (centres unmarked) [Example 146]: the negative-log IC50 (pIC50) is < 5.00 at ROCK1 and 5.52 to 6.52 on ROCK2.

For `CCn1nc(-c2ccc(C3CCCN(CC(F)(F)F)C3)c(C)c2)nc1Nc1cc2c(cc1C)C(=O)NC2C` (centres unmarked) [Example 147], the figures for the pIC50 on ROCK1 and at ROCK2 were < 5.00 and 5.52 to 6.52, respectively.

As for `CCn1nc(-c2ccc(C3CCC(C)NC3)cc2)nc1Nc1cc2c(cc1C)C(=O)NC2C` (centres unmarked) [Example 148], the negative-log IC50 (pIC50) at ROCK1 and on ROCK2 was < 5.00 in each case.

Regarding `CCn1nc(-c2ccc(-c3ccc(C)nc3)cc2C)nc1Nc1cc2c(cc1F)C(=O)NC2C` (centres unmarked) [Example 149], the negative logarithm of the IC50 (pIC50) on ROCK1 was < 5.00; on ROCK2, > 6.52.

Turning to `CCn1nc(-c2ccc(-c3ccc(C)nc3)cc2C)nc1Nc1cc2c(cc1C)C(=O)NC2C` (centres unmarked) [Example 150], the pIC50 was 5.00 to 5.52 at ROCK1 and > 6.52 on ROCK2.

For the molecule `CCn1nc(-c2ccc(C3CCCN(C)C3)cc2)nc1Nc1cc2c(cc1C)C(=O)NC2C` (centres unmarked) [Example 151], the negative-log IC50 (pIC50) at ROCK1 and at ROCK2 was < 5.00 throughout.

`CCn1nc(-c2ccc(-c3cnn(CC(F)(F)F)c3)cc2)nc1Nc1cc2c(cc1C)C(=O)NC2C` (centres unmarked) [Example 152]: the negative logarithm of the IC50 (pIC50) at ROCK1 was 5.00 to 5.52; at ROCK2 it was > 6.52.

`CCn1nc(-c2ccc(-c3cnn(CC(F)(F)F)c3)cc2C)nc1Nc1cc2c(cc1C)C(=O)NC2C` (centres unmarked) [Example 153]: the pIC50 is 5.52 to 6.52 at ROCK1 and > 6.52 at ROCK2.

For the molecule `CCn1nc(-c2ccc(-c3ccc(C(C)(C)O)nc3)c(C)c2)nc1Nc1cc2c(cc1C)C(=O)NC2C` (centres unmarked) [Example 154], the pIC50 was 5.52 to 6.52 on ROCK1 and > 6.52 at ROCK2.

As for `CCn1nc(-c2ccc(C3CCC(C)NC3)cc2C)nc1Nc1cc2c(cc1C)C(=O)NC2C` (centres unmarked) [Example 155], the negative logarithm of the IC50 (pIC50) on ROCK1 was < 5.00; on ROCK2 it was 5.00 to 5.52.

With `CCn1nc(-c2ccc(-c3ccc(C4CC4)nc3)c(C)c2)nc1Nc1cc2c(cc1C)C(=O)NC2C` (centres unmarked) [Example 156], the pIC50 was < 5.00 on ROCK1 and 5.52 to 6.52 on ROCK2.

Turning to `CCn1nc(-c2ccc(-c3ccc(C(C)(C)O)nc3)cc2)nc1Nc1cc2c(cc1C)C(=O)NC2C` (centres unmarked) [Example 157], the pIC50 was 5.52 to 6.52 at ROCK1 and > 6.52 at ROCK2.

As to `CCn1nc(-c2ccc(-n3cnc(C4CC4)c3)cc2C)nc1Nc1cc2c(cc1C)C(=O)N[C@@H]2C` [Example 158], the negative logarithm of the IC50 (pIC50) on ROCK1 is 5.00 to 5.52; on ROCK2 it was > 6.52.

As to `CCn1nc(-c2ccc(-n3cnc(C4CC4)c3)cc2C)nc1Nc1cc2c(cc1C)C(=O)N[C@H]2C` [Example 159], the pIC50 was 5.52 to 6.52 at ROCK1 and > 6.52 on ROCK2.

Turning to `CCn1nc(-c2ccc(-c3ccc(C4CC4)nc3)cc2)nc1Nc1cc2c(cc1F)C(=O)N[C@@H]2C` [Example 160], the negative logarithm of the IC50 (pIC50) on ROCK1 was 5.00 to 5.52; on ROCK2, > 6.52.

On to `CCn1nc(-c2ccc(-c3ccc(C4CC4)nc3)cc2)nc1Nc1cc2c(cc1F)C(=O)N[C@H]2C` [Example 161], for which the pIC50 on ROCK1 was 5.00 to 5.52; on ROCK2, > 6.52.

As for `CCn1nc(-c2ccc(-c3cnn(CC(F)(F)F)c3)cc2)nc1Nc1cc2c(cc1C)C(=O)N[C@H]2C` [Example 162], the negative-log IC50 (pIC50) on ROCK1 was 5.00 to 5.52; at ROCK2 it was > 6.52.

As for `CCn1nc(-c2ccc(-c3cnn(CC(F)(F)F)c3)cc2)nc1Nc1cc2c(cc1C)C(=O)N[C@@H]2C` [Example 163], the figures for the negative-log IC50 (pIC50) on ROCK1 and on ROCK2 were 5.52 to 6.52 and > 6.52, respectively.
